Experimental findings from PubChem BioAssay AID720589 (Broad Institute, 2013) are described below.

SMILES strings stand for the structures. Activity calls are given as the source filed them.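 Rule for the calls: active = fitted curve drops below -35% activity at a concentration within twice the top valid tested dose; inconclusive = no clear call, values can overlap the other calls; inactive = signal rising instead of falling, among other cases.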

The test system of one assay is HepG2 viability, ATP luminescence (CellTiter-Glo), 72 h. In words: ATP-based viability loss in HepG2 cells – cell-based, CellTiter-Glo luminescence, cherry-pick, set 3, cytotoxicity control, dose response (AID 720589).
Details: not given
Background: ATP-based viability assays read luminescence as a measure of living cells.
Regarding `COc1cc2c(cc1NC(=O)CN(C)Cc1ccc(OC)c(OC)c1)oc1ccccc12`, the AC35 was 15.6 µM. Turning to `CC(=NNc1ccc2ccccc2n1)c1ccccn1`, the AC35 was 1.53 µM. The same measure, in the same setting: the figure for `COc1ccc(S(=O)(=O)Nc2cccc3c2O[C@H](CN(C)Cc2ccc(C(=O)Nc4ccccc4N)cc2)[C@H](C)CN([C@@H](C)CO)C3=O)cc1` is 4.44 µM; for `C[C@@H]1O[C@@H](O[C@H]2C[C@@H](O)[C@]3(CO)[C@H]4[C@H](O)C[C@]5(C)[C@@H](C6COC(=O)C6)CC[C@]5(O)[C@@H]4CC[C@]3(O)C2)[C@H](O)[C@H](O)[C@H]1O` (stereo partly specified) it is 2.62 µM. With `O=c1cc(CN2CCN(Cc3ccccc3)CC2)c2ccc(O)c(O)c2o1`, the AC35 is 10.3 µM. Take `O=C(c1nnsc1S(=O)c1ccc(Cl)cc1)N1CCOCC1` (stereo unspecified): the AC35 is 7.87 µM. Turning to `C=C1C(=O)OC2C1CCC(C)C1C=CC(=O)C12C` (stereo unspecified), the AC35 was 9.29 µM. The same measure, in the same setting: the figure for `C=C1C(=O)OC2C1CCC(C)C1(O)C=CC(=O)C21C` (stereo unspecified) is 16.4 µM; for `C[C@H](CO)N1C[C@H](C)[C@H](CN(C)Cc2ccc(C(=O)Nc3ccccc3N)cc2)Oc2ccc(NC(=O)C3CC3)cc2CC1=O` it is 0.74 µM. Consider `CN=c1scc(-c2cccs2)n1/N=C/c1ccccc1O`, for which the AC35 is 20.8 µM. Regarding `O=c1c2ccccc2nc(/C=C/c2cc(Br)ccc2O)n1CCCO`, the AC35 was 6.52 µM. `C[C@H]1CN([C@@H](C)CO)S(=O)(=O)c2ccc(C#Cc3ccncc3)cc2O[C@@H]1CN(C)C(=O)Nc1ccc2c(c1)OCO2`: the AC35 was 0.902 µM. On the same count and under the same terms, next, `CCCCNC1=CC(=O)C(=O)c2ccccc21`: 7.32 µM; `C[C@@H]1CN([C@@H](C)CO)C(=O)c2cc(NS(=O)(=O)c3ccc(Cl)cc3)ccc2O[C@@H]1CN(C)Cc1ccc(C(=O)Nc2ccccc2N)cc1`: 9.68 µM. On the same count and under the same terms, next, `C[C@H](CO)N1C[C@H](C)[C@H](CN(C)Cc2ccc(Oc3ccccc3)cc2)Oc2ccc(NC(=O)Cn3cnnn3)cc2CC1=O`: 6.59 µM; `COc1ccc([Si](C)(C)[C@H]2[C@H](CCO)O[C@@]3(C(=O)N(c4ccccc4)c4ccccc43)[C@@H]2C)cc1`: 10.5 µM. For the compound `CCCCc1c(-c2ccccc2OC)ncn1Cc1ccc(C(C)(C)C)cc1`, the AC35 was 8.48 µM.

With `O=C(C1CC1)N1C[C@@H]2N[C@H](C1)C2c1ccc(/C=C/c2ccccc2)cc1` (stereo partly specified), the AC35 was 10.7 µM. Take `C[C@@H]1CN([C@@H](C)CO)C(=O)c2cc(NS(=O)(=O)c3ccccc3)ccc2O[C@@H]1CN(C)Cc1ccc(C(=O)Nc2ccccc2N)cc1`: the AC35 was 7.52 µM. Still for that read-out and setting: next, `CC(C)c1oc(=O)cc2c1[C@@H](O)[C@H]1OC(=O)[C@@]3(C)CC[C@@H](O)[C@@]2(C)C13` (stereo partly specified): 19.7 µM; `Oc1[nH]c2ccc(Br)cc2c1N=NC(=S)N1CCOCC1`: 2.9 µM. For the compound `N#CC(C#N)=C1C=CC=CN1/C(=C\c1ccco1)C(=O)c1ccc(Cl)cc1`, the AC35 was 11.2 µM.

With `CN1C2CCC1/C(=C/c1ccccn1)C(=O)/C2=C\c1ccccn1`, the AC35 was 1.27 µM.

System in a further assay: not listed separately
Described as above. As to conditions: HepG2 viability, ATP luminescence (CellTiter-Glo), 72 h; at 0.011 µM; active compounds read low; 0% = untreated, negative = ATP loss.
In the case of `COc1ccccc1NS(=O)(=O)c1cc(NC(=O)c2cc3ccccc3oc2=O)ccc1C`, the max activity is -20.4% (inactive). On to `CCNC(=O)c1cccc(S(=O)(=O)N2CCCCCC2)c1`, for which the max activity was -31.4% (inactive). For the compound `COc1ccc(NC(=O)N(C)[C@H]2C[C@H]3c4[nH]c5ccccc5c4CCN3C(=O)[C@H]2CO)cc1`, the max activity was -20.5% (inactive). On the same count and under the same terms, the figure for `COc1ccc(NS(=O)(=O)c2cc(NC(=O)CNC(=O)c3cccc(OC)c3)ccc2C)cc1` is -35% (inactive). For the compound `C[C@@H]1CN([C@@H](C)CO)S(=O)(=O)c2ccc(C#Cc3ccncc3)cc2O[C@H]1CN(C)C(=O)C1CCOCC1`, the max activity is -28.4% (inactive).

As for `C(=C\c1ccc(C2[C@H]3CNC[C@@H]2N3Cc2ccccn2)cc1)/c1ccccc1` (stereo partly specified), the max activity is -23.3% (inactive). For `Cc1c(-c2nc(-c3ccc(C(C)(C)C)cc3)no2)n(C)oc1=O`, the max activity was -27.3% (inactive). `Cc1cccc(/C=N/Nc2ccc3ccccc3n2)c1`: the max activity was 29% (inactive). Consider `C/C(=N\N(c1ccccc1)c1ccccc1)c1ccco1`, for which the max activity is 17.6% (inactive).

For `COC(=O)c1c(C)[nH]c(/C=N/Nc2ccccc2)c1C`, the max activity was -17.5% (inactive). As for `CCn1c(/C=N/NC(=O)c2ccc(OC)cc2)nc2ccccc21`, the max activity was -35.2% (inactive).

Turning to `COc1ccc(/C=C2/NC(=O)N(CC(=O)Nc3cccc(C)c3)C2=O)cc1O`, the max activity was 18.1% (inactive). Turning to `CC(=NNc1ccc2ccccc2n1)c1ccccc1O`, the max activity was -35.4% (inactive).

The same assay, now with this note: HepG2 viability, ATP luminescence (CellTiter-Glo), 72 h; at 0.012 µM; active compounds read low; 0% = untreated, negative = ATP loss.
Turning to `CN(C)C(=O)c1ccc(-c2ccccc2[C@@H]2[C@@H](CO)N(C(=O)C3CC3)[C@H]2C#N)cc1`, the max activity is 20.5% (inactive).

The assay is the same for the next values; noted with them: HepG2 viability, ATP luminescence (CellTiter-Glo), 72 h; at 0.035 µM; active compounds read low; 0% = untreated, negative = ATP loss.
Take `COc1ccc(S(=O)(=O)N2CC[C@@H]3[C@H](CO)Nc4ccc(-c5ccc(C#N)cc5)cc4[C@@H]32)cc1`: the max activity was -30.4% (inactive). Regarding `C[C@H]1CN([C@@H](C)CO)C(=O)Cc2cc(NC(=O)C3CC3)ccc2O[C@H]1CN(C)S(=O)(=O)c1ccc(Cl)cc1`, the max activity was -39.2% (inactive).

Consider `O=C1C(=O)N(Cc2cccs2)c2ccccc21`, for which the max activity is -28.1% (inactive). Take `COc1ccc(/C=C2\SC(=O)N(CCCC(=O)Nc3ccc(C(=O)O)cc3)C2=O)cc1`: the max activity is 21% (inactive).

Still in this assay, the particulars now being: HepG2 viability, ATP luminescence (CellTiter-Glo), 72 h; at 0.1 µM; active compounds read low; 0% = untreated, negative = ATP loss.
Take `Cc1ccc(C(C(=O)NCc2ccco2)N(C(=O)CNC(=O)c2cccs2)c2c(C)cc(C)cc2C)cc1` (stereo unspecified): the max activity was -27% (inactive).

Turning to `COc1cccc(S(=O)(=O)N(C)C[C@H]2OCc3cnnn3CCCC(=O)N([C@@H](C)CO)C[C@H]2C)c1`, the max activity is -29.1% (inactive). On to `COc1ccc(C/C(N)=N/OC(C)=O)cc1OC`, for which the max activity is -33.4% (inactive). Take `COc1cccc(Sc2ccccc2/C=N/NC(N)=O)c1`: the max activity was -25.8% (inactive). Still for that read-out and setting: next, `CCOC(=O)C1CCCCN1C(=O)CCc1c(C)nc2cc(-c3ccccc3)nn2c1C` (stereo unspecified): 21.3% (inactive); `Cc1occc1-c1n[nH]c(=S)n1C`: -6.52% (inactive).

Still in this assay, the particulars now being: HepG2 viability, ATP luminescence (CellTiter-Glo), 72 h; at 0.3 µM; active compounds read low.
In the case of `O=C1NC(=O)N(CCc2ccc(F)cc2)C(=O)/C1=C/C=C/c1ccccc1`, the max activity was -15.6% (inactive).

The same assay, now with this note: HepG2 viability, ATP luminescence (CellTiter-Glo), 72 h; at 0.3 µM; active compounds read low; 0% = untreated, negative = ATP loss.
For `C=CCn1c(O)c(N=Nc2ccccc2)c2ccccc21`, the max activity was -21.6% (inactive). Regarding `COc1ccc(/C=C2\Oc3ccccc3C2=O)cc1`, the max activity is 21% (inactive). Turning to `COc1ccc(CN(C)c2ncnc3sccc23)c(OC)c1OC`, the max activity is -16.5% (inactive).

Take `C[C@@H]1CN([C@H](C)CO)C(=O)c2cc(NS(=O)(=O)c3ccc(Cl)cc3)ccc2O[C@@H]1CN(C)Cc1ccc(Cl)c(Cl)c1`: the max activity was -36.6% (inactive).

The assay is the same for the next values; noted with them: HepG2 viability, ATP luminescence (CellTiter-Glo), 72 h; at 2.85 µM; active compounds read low; 0% = untreated, negative = ATP loss.
Take `COc1ccc(-c2cnc3c(NC=O)cc(-c4ccccc4OC)cn23)cc1OC`: the max activity is -32.9% (inactive). As for `Cc1ccccc1N=Nc1c(O)n(C)c2ccccc12`, the max activity is -14.8% (inactive).

Staying with this assay, now noted: HepG2 viability, ATP luminescence (CellTiter-Glo), 72 h; at 8 µM; active compounds read low; 0% = untreated, negative = ATP loss.
Consider `COc1ccc(C2c3cc4c(cc3OC(NNC(N)=O)C2C)OCO4)cc1` (stereo unspecified), for which the max activity was -29.8% (inactive). Consider `COC(=O)C[C@@H]1CC[C@@H]2[C@@H](COc3ccc(NC(=O)Nc4cccc(Cl)c4)cc3C(=O)N2C)O1`, for which the max activity was -33.7% (inactive).

Staying with this assay, now noted: HepG2 viability, ATP luminescence (CellTiter-Glo), 72 h; at 23.5 µM; active compounds read low; 0% = untreated, negative = ATP loss.
With `N#C[C@H]1N[C@H](CO)[C@H]1c1ccc(C#Cc2ccccc2F)cc1`, the max activity was -26.9% (inactive). The same measure, in the same setting: the figure for `C[C@H]1CN([C@@H](C)CO)C(=O)Cc2cc(NC(=O)CCCCCC(=O)Nc3ccccc3N)ccc2O[C@H]1CN(C)Cc1ccc(Cl)c(Cl)c1` is -29.2% (inactive).

Staying with this assay, now noted: HepG2 viability, ATP luminescence (CellTiter-Glo), 72 h; at 26 µM; active compounds read low; 0% = untreated, negative = ATP loss.
For `COc1cccc(OC)c1C(=O)Nc1cc(C)nn1-c1nc2ccccc2[nH]1`, the max activity is -39.9% (inactive). For the compound `O=C(O)c1cccc(N/N=C/c2cccs2)c1`, the max activity is -13.2% (inactive). Consider `O=C(O)c1ccc(N/N=C/c2ccc(OC(=O)c3cccc(Cl)c3)cc2)cc1`, for which the max activity is -33.2% (inactive). For the compound `CC(=O)ON=C1C=CC(=C(C#N)c2ccccc2)C=C1`, the max activity is -27.6% (inactive). Turning to `O=C(Nc1nc(-c2ccc(F)c(F)c2)cs1)c1ccc(OCC2CCCO2)cc1` (stereo unspecified), the max activity was -28.7% (inactive). On to `CC1=NC(=O)C(N=Nc2cccc(C(=O)O)c2)N1c1ccccc1` (stereo unspecified), for which the max activity was -23.4% (inactive). `CO[C@H]1CN(C)C(=O)c2cc(NC(=O)c3ccc(Oc4ccccc4)cc3)ccc2OC[C@H](C)NC[C@@H]1C`: the max activity is -95.1% (inactive). With `Cc1ccc(C(CC(=O)O)Nc2nc(N3CCOCC3)nc(N3CCOCC3)n2)cc1` (stereo unspecified), the max activity was 36.9% (inactive).

Turning to `O=C(NCc1cccnc1)C1Cc2c(-c3ccc(Cl)cc3)ccnc2O1` (stereo unspecified), the max activity is -18.3% (inactive). Same read-out and setting: next, `COc1ccc(-c2sc3ccccc3c2-c2ccc(OCCN3CCCCC3)cc2)cc1`: -22.5% (inactive); `Cc1ccc2oc(/N=C(\N)NC(=O)C(C)(C)C)nc2c1`: -11.8% (inactive); `CCCCCCCCn1c2c(c(=N)c3c1CCC3)CCCC2`: -46.7% (inactive). For the compound `CCOc1ccc(OCc2ccc(C(=O)NN=Cc3ccc[nH]3)cc2)cc1`, the max activity was -34% (inactive).
